# Source: patent publication US20160101093A1, “METHODS FOR THE TREATMENT OF PREMATURE EJACULATION” (priority 2013, published 2016)
# How the values were obtained:
# [1] = system: patient with lifelong premature ejaculation; experiment: Patient self-injection of bupivacaine at home, subcutaneous, dorsal penis (contemplated Examples 1 and 2); assay type: in vivo, human; conditions: dorsally within 1 cm proximal to the glans, self-injected
# Description: “Prolongation of climax time” means an increase in time (increase in climax baseline time) from which a patient becomes sexually aroused to the time of sexual climax (i.e. orgasm). This is commonly measured as the ‘intravaginal latency time’ and is measured by stopwatch held and activated by the female partner commencing with insertion of male organ into the female, ending at climax of the male. In one aspect, “treating premature ejaculation” means increasing the time between the beginning of sexual arousal of a patient and ejaculation by the patient; and in particular instances, it can mean increasing the time from which sexual intercourse begins to the time of ejaculation. It is contemplated by the present invention, that a patient with lifelong premature ejaculation and relationship stress proceeds to contact their physician. The physician prescribes a teaching injection of 0.2 mL bupivacaine. The administration of bupivacaine is made dorsally just before the glans, e.g., within 1 cm proximal to the glans. The injection is made subcutaneously to the left or right of midline. The injection anesthetizes the dorsal penile nerve. A 30-32 gauge needle is used, and the need is 10 mm or less (e.g., between 4-10 mm, e.g., 4 mm). […] In one aspect the patient sees an improvement in prolonging climax from 45 seconds (prior to treatment) to 4 minutes (following treatment). It is contemplated by the present invention, that a patient with lifelong premature ejaculation and relationship stress proceeds to contact their physician. The physician prescribes a teaching injection of 0.4 mL bupivacaine. The administration of bupivacaine is made dorsally just before the glans, e.g., within 1 cm proximal to the glans. The injection is made subcutaneously to the left or right of midline. The injection anesthetizes the dorsal penile nerve. A 30-32 gauge needle is used, and the need is 7 mm or less (between 4-7 mm). […] In one aspect the patient sees an improvement in prolonging climax from 45 seconds (prior to treatment) to 4 minutes (following treatment).
# [2] = system: patient with premature ejaculation; experiment: Randomized blinded study of clinician-administered bupivacaine injection, IELT and PEP recorded (Example 4); assay type: in vivo, human; conditions: 0.25% bupivacaine
# Description: A patient with premature ejaculation is 18 years or old and in a monogamous heterosexual relationship for 6 months. A screening/baseline run-in phase will request at least 4 measurements of IELT over a 4-6 week period. For each sexual episode, partner will record PEP, IELT, date and time of sexual encounter; patient will fill out PEP. To qualify for the treatment phase, patients must have a measured IELT of 2 minutes or less in 75% of valuable events. A volume of distribution of 0.4 and 0.8 mL will bathe the dorsal penile nerves as they are located just to the right and left of midline. Diffusion should occur across the midline given that the subcutaneous compartment has a low resistance to fluid migration. Diffusion of the drug solution should occur through Buck's fascia to the dorsal penile nerves. A concentration of bupivacaine (0.25%) is used for local nerve blocks. Doses of administration are of 1 mg of bupivacaine for the 0.4 mL volume and 2 mg for the 0.8 mL group. This is less than 1.5% of the maximum permitted dose. […] Patients will be randomized to one of 4 treatment groups. […] Subsequently, patient will be evaluated for eligibility for “treatment phase”—must have either: (1) IELT of 2 minutes or less in at least 75% or sexual episodes; or (2) IELT of 3 minutes or less in at least 75% of sexual episodes with PEP score indicating accompanying psychosocial or relationship distress. […]
structure (smiles),measurement,setting,value
CCCCN1CCCCC1C(=O)Nc1c(C)cccc1C (centres unmarked) [bupivacaine],climax time following treatment (45 seconds prior to treatment),[1]; 0.2 mL bupivacaine,4 min
same,intravaginal latency time increase,[1]; 0.2 mL bupivacaine,increases more than two-fold
same,side-effect profile compared to previous therapies,[1]; 0.2 mL bupivacaine,better side-effect profile compared to previous therapies
same,climax time following treatment (45 seconds prior to treatment),[1]; 0.4 mL bupivacaine,4 min
same,intravaginal latency time increase,[1]; 0.4 mL bupivacaine,increases more than two-fold
same,side-effect profile compared to previous therapies,[1]; 0.4 mL bupivacaine,better side-effect profile compared to previous therapies
same,adverse dose-related effects,[2]; 1 mg (0.4 mL) or 2 mg (0.8 mL),not anticipated
same,climax time following treatment (45 seconds prior to treatment),"[2]; treatment groups, 1 mg in 0.4 mL or 2 mg in 0.8 mL, clinician-injected",4 min
